Results: US20260232768A1, “TREATMENT OF ATOPIC DERMATITIS WITH POLYETHYLENE GLYCOL-MODIFIED INTERLEUKIN 2, GLUCOCORTICOID AND HYALURONIC ACID” (priority 2023, published 2026)
Marks after values point to notes of the source that are not given here.

Experiments:
[1] = system: CD25+FoxP3+ cells in spleen CD3+CD4+ lymphocytes and PD-1+ cells in CD3+CD4+CD25+FoxP3+ cells; experiment: Intraperitoneal injection in physiological model mice, spleen Treg and PD-1 by flow cytometry; type: in vivo, BALB/c mice
From the text: We intraperitoneally injected PEG-IL-2 modified with non-branched PEG of different molecular weight sizes in physiological model mice, and detected FoxP3+ regulatory T cells and the expression of PD-1 in spleen cells on day 4.

[2] = system: OVA induced atopic dermatitis (AD) mouse model; experiment: OVA induced atopic dermatitis (AD) mouse model, skin inflammation status scoring; type: in vivo, BALB/c mice; details: AD model mice, topical patch for 3 consecutive days; total score 0-12; 6 mice per group
Method: 10 μg OVA was mixed with 2 mg of aluminum hydroxide in 200 μL of phosphate buffer (PBS) solution, intraperitoneally injected to sensitize mice, once every week (at day 0, 7 and 14), each mouse was injected 3 times, 200 μL each time. On day 14, mice were anesthetized using pentobarbital intraperitoneal injection. […] The OVA patch was prepared by wetting a 1.5×1.5 cm^2 sterile gauze in a solution of 1 mg/mL of OVA (dissolved in PBS) (approximately 100 μL of OVA solution), and was attached using a transparent dressing to the back skin after epilation and replaced daily for 3-7 days to develop dermatitis manifestation, and the status of the back skin of the mice was recorded photographically on day 4~5 after inducing mouse dermatitis (the dermatitis manifestation was most obvious), and the skin inflammation status was scored. […]
Skin inflammation status scores assess dermatitis severity clinically. The total score was 0 to 12, evaluated from four aspects, edema, erythema, scaling and erosion, respectively, an individual score was 0-3 (0, no; 1, mild; 2, moderate; 3, severe), and the final score was the sum of each individual term [SCHWARTZ C, et al. Spontaneous atopic dermatitis in mice with a defective skin barrier is independent of ILC2 and mediated by IL-1β.

Compound | up-regulation of FoxP3+ regulatory T cells in spleen (in words) ([1]; detected on day 4) | expression of PD-1 by regulatory T cells (in words) ([1]; spleen, day 4) | Dermatitis score (χ ± s) [2]
normal IL-2: recombinant human interleukin 2 not modified with PEG, SEQ ID NO: 1, 15 kD | did not up-regulate Tregs | can promote the expression of PD-1 | –
CCCC1O[C@@H]2C[C@H]3[C@@H]4CCC5=CC(=O)C=C[C@]5(C)[C@H]4[C@@H](O)C[C@]3(C)[C@]2(C(=O)CO)O1 (stereo partly drawn) [Budesonide alone, budesonide] | – | – | 2.333 ± 1.211*^
